This is an account of results in PubChem BioAssay (NCI).

Common to all, as to assay: NCI-60 cell line screen, 48 h
Assay [1] has as its system IGROV1 ovarian.
Assay [2] deals with CAKI-1 renal.
Assay [3] concerns SR leukemia.
Assay [4] relates to CCRF-CEM leukemia.
The subject of assay [5] is SW-620 colon.
The test system of assay [6] is PC-3 prostate.
The subject of assay [7] is MOLT-4 leukemia.
Assay [8] deals with TK-10 renal.
The test system of assay [9] is OVCAR-4 ovarian.
The subject of assay [10] is M14 melanoma.

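Each compound was tested at five concentrations against cells in 96-well plates for 48 hours. Here, GI50 denotes the concentration required for 50% inhibition of growth. At the TGI there is no net growth.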

As for `C[C@@H]1COCCN1c1nc(-c2cnc(N)cc2C(F)F)nc(N2[C@H](C)COC[C@@H]2C)n1`, the GI50 in [1] is 0.0845 µM; in assay [2] it was 0.19 µM; in assay [3] it was 0.189 µM; in [4], 0.431 µM; in [5], 0.419 µM; in [6], 0.215 µM. The GI50 in assay [7] was 0.295 µM; in assay [8], 0.209 µM; in assay [9], 0.278 µM; in assay [10] it was 0.3 µM. In addition, the TGI in [1] worked out at 1.77 µM; in assay [2] it was 11.4 µM; in [3], 4.88 µM; in [4], 21.2 µM; in assay [5], 13 µM; in assay [6] it was 14.4 µM. The TGI stood at 9.15 µM in assay [7], 4.51 µM in [8], 11.9 µM in [9] and 11.7 µM in [10].
On to `O=C(Cn1c(=O)c(-c2ccccc2)nc2ccccc21)c1cccnc1`, for which the GI50 in [1], in [2], in assay [3], in assay [4], in assay [5] and in [6] was over 100 µM each time. For the same molecule, the GI50 in [7] was over 100 µM; in assay [8], over 100 µM; in [9], 46.2 µM; in [10] it was over 100 µM. In addition, the TGI in [1], in assay [2], in assay [3], in assay [4], in assay [5] and in [6] was over 100 µM each time. Also, the TGI in assay [7], in [8], in assay [9] and in assay [10] was over 100 µM throughout.
With `Nc1nc2c(c3ncccc13)C(c1ccc(Cl)c(Cl)c1)Cc1ncccc1-2` (centres undefined), the GI50 in assay [1] was 7.83 µM; in assay [2] it was 3.9 µM; in [3] it was 2.46 µM; in assay [4], 3.27 µM; in assay [5] it was 3.5 µM; in assay [6] it was 3.4 µM. Further, the GI50 in assay [7] is 3.3 µM; in assay [8], 6.46 µM; in [9], 5.76 µM; in [10], 3.2 µM. Further, the TGI in assay [1] was found to be 28.1 µM; in assay [2] it was 20.5 µM; in assay [3] it was 13 µM; in [4] it was 16.6 µM; in assay [5] it was 19 µM; in assay [6], 15.5 µM. The TGI in assay [7] was determined as 15.2 µM; in assay [8], 20.5 µM; in assay [9], 18.6 µM; in [10], 12.3 µM.
On to `Nc1c(C(=O)c2cccc(-c3ccc[n+]([O-])c3)c2)cnn1-c1ccc(F)cc1F`, for which the GI50 in [1] was over 25 µM; in assay [2], over 25 µM; in assay [3] it was 17.8 µM; in assay [4], over 25 µM; in assay [5], over 25 µM; in [6] it was over 25 µM. Also, the GI50 in assay [7], in assay [8], in assay [9] and in [10] was over 25 µM in each case. Moreover, the TGI in assay [1], in [2], in [3], in assay [4], in assay [5] and in assay [6] was over 25 µM in each case. Besides, the TGI in assay [7], in assay [8], in [9] and in [10] was over 25 µM each time.
Take `OCc1cccc(-c2ccc3ncc(-c4nc(NC5CC5)ncc4F)n3c2)c1`: the GI50 in assay [1] is 0.227 µM; in assay [2], 0.153 µM; in assay [3], 0.0541 µM; in assay [4] it was 0.249 µM; in assay [5], 0.258 µM; in assay [6], 0.314 µM. In addition, the GI50 in assay [7] was 0.266 µM; in assay [8], 0.3 µM; in assay [9] it was 0.342 µM; in assay [10] it was 0.328 µM. The TGI in [1] was 1.32 µM; in assay [2] it was 1.65 µM; in assay [3] it was over 38.9 µM; in [4] it was 2.69 µM; in [5] it was 0.971 µM; in [6] it was 3.23 µM. Besides, the TGI in [8] is over 100 µM; in assay [9], 1.77 µM; in assay [10] it was 1.15 µM.
